The source of these data is patent US10745377B2, “Piperidine or piperazine linked imidazole and triazole derivatives and methods of use” (MERCK SHARP & DOHME CORP., priority 2013, dated 2020).

One may read the IC50 as the concentration needed to halve the response being measured.

What all share (type): biochemical
One assay concerns the target T1, CYP3A4 (Homo sapiens, UniProt P08684).
T1 construct: 0.1 mg/mL protein human liver microsomes (BD Gentest); tissue BD Gentest; host or cells: human liver microsomes
As to the kind of experiment: Cocktail assay for CYPs in human liver microsomes: CYP3A4 (midazolam 1′-hydroxylation). The settings on record: human liver microsomes 0.1 mg/mL, 2 μM midazolam, 10 min at 37° C., 6 concentrations up to 10 μM; read-out: IC50 (nM) CYP3A4. For orientation: Liver microsomes are a subcellular fraction often used to study metabolism.

The next assay deals with T2, CYP1A2 (Homo sapiens, UniProt P05177).
T2 construct: 0.1 mg/mL protein human liver microsomes (BD Gentest); tissue BD Gentest; host or cells: human liver microsomes
T2 sequence (P05177 1-516): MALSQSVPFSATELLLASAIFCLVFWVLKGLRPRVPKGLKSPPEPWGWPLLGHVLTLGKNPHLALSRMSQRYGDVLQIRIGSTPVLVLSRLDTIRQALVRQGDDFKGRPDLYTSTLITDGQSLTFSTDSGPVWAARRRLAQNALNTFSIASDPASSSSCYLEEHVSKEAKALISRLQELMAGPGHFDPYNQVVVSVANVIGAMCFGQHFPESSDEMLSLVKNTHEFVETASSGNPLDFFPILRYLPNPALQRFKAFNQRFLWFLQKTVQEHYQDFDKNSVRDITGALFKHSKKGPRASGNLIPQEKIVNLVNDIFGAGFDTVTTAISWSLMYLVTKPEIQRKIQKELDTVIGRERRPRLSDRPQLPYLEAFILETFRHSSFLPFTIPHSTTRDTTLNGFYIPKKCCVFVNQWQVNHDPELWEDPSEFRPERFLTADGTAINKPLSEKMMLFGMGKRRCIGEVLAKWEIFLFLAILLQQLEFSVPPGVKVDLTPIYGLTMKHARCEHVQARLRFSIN
As to the kind of experiment: Cocktail assay for CYPs in human liver microsomes: CYP1A2 (phenacetin O-deethylation). The settings on record: human liver microsomes 0.1 mg/mL, 10 μM phenacetin, 10 min at 37° C., 6 concentrations up to 10 μM; read-out: IC50 (nM) CYP1A2.

The next assay has as its target T3, CYP2C9 (Homo sapiens, UniProt P11712).
T3 construct: 0.1 mg/mL protein human liver microsomes (BD Gentest); tissue BD Gentest; host or cells: human liver microsomes
Briefly: Cocktail assay for CYPs in human liver microsomes: CYP2C9 (diclofenac 4′-hydroxylation). The settings on record: human liver microsomes 0.1 mg/mL, 5 μM diclofenac, 10 min at 37° C., 6 concentrations up to 10 μM; read-out: IC50 (nM) CYP2C9.

A further assay addresses T4, CYP2C19 (Homo sapiens, UniProt P33261).
T4 construct: 0.1 mg/mL protein human liver microsomes (BD Gentest); tissue BD Gentest; host or cells: human liver microsomes
As to the kind of experiment: Cocktail assay for CYPs in human liver microsomes: CYP2C19 (mephenytoin 4′-hydroxylation). To be noted: human liver microsomes 0.1 mg/mL, 30 μM mephenytoin, 10 min at 37° C., 6 concentrations up to 10 μM; read-out: IC50 (nM) CYP2C19.

In the next assay the target is T5, CYP2D6 (Homo sapiens, UniProt P10635).
T5 construct: 0.1 mg/mL protein human liver microsomes (BD Gentest); tissue BD Gentest; host or cells: human liver microsomes
Briefly: Cocktail assay for CYPs in human liver microsomes: CYP2D6 (dextromethorphan O-demethylation). The settings on record: human liver microsomes 0.1 mg/mL, 5 μM dextromethorphan, 10 min at 37° C., 6 concentrations up to 10 μM; read-out: IC50 (nM) CYP2D6.

A value given as a limit tells only on which side of the number the result lay.

T5 sequence (P10635 whole entry): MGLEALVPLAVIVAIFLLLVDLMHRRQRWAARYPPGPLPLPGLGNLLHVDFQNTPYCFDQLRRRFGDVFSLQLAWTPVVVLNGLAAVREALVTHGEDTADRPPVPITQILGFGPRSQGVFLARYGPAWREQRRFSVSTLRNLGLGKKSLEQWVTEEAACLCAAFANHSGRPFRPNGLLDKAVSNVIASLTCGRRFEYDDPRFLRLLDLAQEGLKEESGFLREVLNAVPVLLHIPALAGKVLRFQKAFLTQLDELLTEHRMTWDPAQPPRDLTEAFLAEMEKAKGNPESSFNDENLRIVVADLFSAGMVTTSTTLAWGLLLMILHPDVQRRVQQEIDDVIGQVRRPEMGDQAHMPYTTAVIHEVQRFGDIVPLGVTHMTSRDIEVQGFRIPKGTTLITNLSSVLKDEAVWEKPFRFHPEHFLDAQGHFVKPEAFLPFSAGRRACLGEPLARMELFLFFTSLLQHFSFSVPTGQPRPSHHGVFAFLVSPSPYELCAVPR
T3 sequence (P11712 whole entry): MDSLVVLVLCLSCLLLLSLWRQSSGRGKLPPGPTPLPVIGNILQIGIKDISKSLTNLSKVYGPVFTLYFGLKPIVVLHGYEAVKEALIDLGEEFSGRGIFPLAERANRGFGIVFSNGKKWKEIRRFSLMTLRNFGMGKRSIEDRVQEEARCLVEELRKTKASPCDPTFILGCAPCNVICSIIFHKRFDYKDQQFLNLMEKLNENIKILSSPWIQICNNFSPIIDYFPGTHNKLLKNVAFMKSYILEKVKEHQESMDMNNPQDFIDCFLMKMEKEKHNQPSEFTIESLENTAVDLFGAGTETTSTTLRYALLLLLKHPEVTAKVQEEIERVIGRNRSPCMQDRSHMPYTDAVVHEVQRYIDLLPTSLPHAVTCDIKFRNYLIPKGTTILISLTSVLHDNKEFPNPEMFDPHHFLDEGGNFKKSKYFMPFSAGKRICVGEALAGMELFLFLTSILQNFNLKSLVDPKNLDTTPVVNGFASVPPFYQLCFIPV
T1 sequence (P08684 whole entry): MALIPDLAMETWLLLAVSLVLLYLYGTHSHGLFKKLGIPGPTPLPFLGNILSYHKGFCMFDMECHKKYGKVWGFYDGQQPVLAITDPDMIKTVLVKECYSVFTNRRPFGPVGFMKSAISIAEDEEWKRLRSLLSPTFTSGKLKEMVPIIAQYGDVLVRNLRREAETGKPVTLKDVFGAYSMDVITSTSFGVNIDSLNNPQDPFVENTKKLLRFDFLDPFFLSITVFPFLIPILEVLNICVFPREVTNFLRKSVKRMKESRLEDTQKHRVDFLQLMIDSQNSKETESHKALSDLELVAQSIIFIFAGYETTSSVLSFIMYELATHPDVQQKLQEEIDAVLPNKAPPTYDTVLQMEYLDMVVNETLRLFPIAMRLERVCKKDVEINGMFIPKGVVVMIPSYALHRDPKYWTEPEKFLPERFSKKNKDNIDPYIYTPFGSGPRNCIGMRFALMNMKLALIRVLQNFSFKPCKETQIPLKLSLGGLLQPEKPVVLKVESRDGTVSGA
T4 sequence (P33261 whole entry): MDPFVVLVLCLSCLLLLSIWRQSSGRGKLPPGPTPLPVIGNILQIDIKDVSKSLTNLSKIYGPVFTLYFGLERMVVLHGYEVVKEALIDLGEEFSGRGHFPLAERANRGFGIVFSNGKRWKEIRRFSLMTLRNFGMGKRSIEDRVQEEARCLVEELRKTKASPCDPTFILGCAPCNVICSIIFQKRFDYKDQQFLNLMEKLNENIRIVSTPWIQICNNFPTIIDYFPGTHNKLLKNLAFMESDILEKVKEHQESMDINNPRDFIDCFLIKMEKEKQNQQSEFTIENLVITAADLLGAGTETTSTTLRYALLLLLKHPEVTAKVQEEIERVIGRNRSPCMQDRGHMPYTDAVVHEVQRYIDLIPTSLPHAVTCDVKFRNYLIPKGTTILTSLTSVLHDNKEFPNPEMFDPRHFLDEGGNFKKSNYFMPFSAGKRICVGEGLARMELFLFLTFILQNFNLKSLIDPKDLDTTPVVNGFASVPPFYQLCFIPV
Procedure for CYP2C19: (§1) Determination of IC50 in a Cocktail Assay for CYPs 1A2, 2C9, 2C19, 2D6 and 3A4
(§2) This assay was performed in a standard 96-well plate design. […] The incubation substrate mix contains 10 μM phenacetin (1A2), 5 μM diclofenac (2C9), 30 μM mephenytoin (2C19), 5 μM dextromethorphan (2D6) and 2 μM midazolam (3A4), 0.1 mg/mL protein human liver microsomes (BD Gentest), 1 mM NAPDH, 3.3 mM MgCl2 and 100 mM potassium phosphate buffer (pH 7.4). The production of the metabolite of each probe substrate was determined after incubation for 10 min at 37° C. Quantitation of the metabolite peak area ratio against an internal standard (tolbutamide) was determined by LC/MS/MS analysis following acetonitrile treatment of the incubations.
(§3) Samples were analyzed in the MRM mode with a SCIEX API-4000 mass spectrometer (Applied Biosystems, Foster City, Calif.), with a Shimadzu LC-20 AD pump (Shimadzu corporation, Kyoto, JP) and a CTC PAL autosampler (Agilent Technologies, Switzerland). A Phenomenex, Luna, 5 μm, 100 A, 2.00×30 mm HPLC column was used for the separation. The mobile phases were: (A) 0.1% formic acid in water and (B) 0.1% formic acid in acetonitrile. The binary gradient was as follows.
(§4) The mass spectrum parameters were as follows:
(§5) The LC/MS/MS parameters for the analytes were as follows.
(§6) The peak area ratio of the analyte to the internal standard was used to quantify the metabolite. The values of peak area ratios in the presence of test compound were compared to those of maximum or minimum controls and were expressed as % inhibition by interpolating between the maximum and minimum peak area ratios. Incubations with no inhibitor were defined as the maxima.
(§7) The following equation was used to calculate the % inhibition: [1−[(X−Low control)/(High control−Low control)]]*100
(§8) For the IC50 calculation, SigmaPlot was used to plot the mean % inhibition versus the test compound concentrations and for non-linear regression analysis of the data. Depending on the range of data points defining the inhibition curve, the data may have been fit to the 4-parameter logistic equation.
Procedure for CYP2C9: as §1, §2, §3, §4, §5, §6, §7, §8
Procedure for CYP3A4: as §1, §2, §3, §4, §5, §6, §7, §8

Consider `CC1CN(Cc2cncn2[C@H](C)c2ccc(F)cc2)CC(C)N1C(=O)C1(C)CC1` (stereo partly drawn) [Compound 54, (4-((1-((R)-1-(4-fluorophenyl)ethyl)-1H-imidazol-5-yl)methyl)-2,6-dimethylpiperazin-1-yl)(1-methylcyclopropyl) methanone], for which the IC50 at CYP3A4 is 14 nM; at CYP1A2 it was above 10000 nM; at CYP2C9, 2860 nM; at CYP2C19, 3350 nM; on CYP2D6, above 10000 nM.

In the case of `C[C@H](c1ccc(F)cc1)n1cncc1CN1CCN(C(=O)c2ccccc2)C(C(C)(C)C)C1` (stereo partly drawn) [Compound 55, (2-(tert-butyl)-4-((1-((R)-1-(4-fluorophenyl)ethyl)-1H-imidazol-5-yl)methyl)piperazin-1-yl)(phenyl) methanone], the IC50 at CYP3A4 is 10 nM; on CYP1A2 it was above 10000 nM; on CYP2C9, 2970 nM; on CYP2C19 it was 2390 nM; at CYP2D6, 8030 nM.

In the case of `CC1CN(Cc2cncn2C(C)C2CCOCC2)CC(C)N1C(=O)C1(C)CC1` (stereo not drawn) [Compound 56, (2,6-dimethyl-4-((1-(1-(tetrahydro-2H-pyran-4-yl)ethyl)-1H-imidazol-5-yl)methyl)piperazin-1-yl)(1-methylcyclopropyl) methanone], the IC50 is 35 nM at CYP3A4; above 10000 nM on CYP1A2; above 10000 nM on CYP2C9; above 10000 nM at CYP2C19; 7160 nM at CYP2D6.

Consider `C[C@H](c1ccc(F)cc1)n1cncc1CN1CCN(C(=O)C2(C)CC2)C(c2ccc(N(C)C)cc2)C1` (stereo partly drawn) [Compound 57, (2-(4-(dimethylamino)phenyl)-4-((1-((R)-1-(4-fluorophenyl)ethyl)-1H-imidazol-5-yl)methyl)piperazin-1-yl)(1-methylcyclopropyl) methanone], for which the IC50 was 5 nM at CYP3A4; above 10000 nM on CYP1A2; 2810 nM at CYP2C9; 2640 nM on CYP2C19; 2450 nM on CYP2D6.

Consider `CC1CN(Cc2cncn2[C@H](C)c2ccc(C#N)cc2)CC(C)N1C(=O)C1CC(F)(F)C1` (stereo partly drawn) [Compound 58, 4-((1R)-1-(5-((4-(3,3-difluorocyclo-butanecarbonyl)-3,5-dimethylpiperazin-1-yl)methyl)-1H-imidazol-1-yl)ethyl)benzonitrile], for which the half-inhibitory concentration (IC50) on CYP3A4 was 7 nM; at CYP1A2 it was above 10000 nM; on CYP2C9, 2570 nM; at CYP2C19, above 10000 nM; at CYP2D6 it was above 10000 nM.

`CC(c1ccccc1-c1ccc(F)cc1)n1cncc1CN1CCN(C(=O)c2ccccc2)CC1` (stereo not drawn) [Compound 59, (4-((1-(1-(4′-fluoro-[1,1′-biphenyl]-2-yl)ethyl)-1H-imidazol-5-yl)methyl)piperazin-1-yl)(phenyl) methanone]: the IC50 on CYP3A4 is 9 nM; at CYP1A2 it was above 10000 nM; at CYP2C9 it was 6480 nM; at CYP2C19, 3360 nM; on CYP2D6, 2210 nM.

Regarding `CC(=O)N1CCN(Cc2cncn2C(C)c2ccccc2-c2ccc(F)cc2)CC1` (stereo not drawn) [Compound 60, 1-(4-((1-(1-(4′-fluoro-[1,1′-biphenyl]-2-yl)ethyl)-1H-imidazol-5-yl)methyl)piperazin-1-yl)ethanone], the IC50 on CYP3A4 is 23 nM; at CYP1A2 it was above 10000 nM; on CYP2C9 it was above 10000 nM; on CYP2C19, above 10000 nM; at CYP2D6 it was 4500 nM.

Turning to `C[C@H](c1ccc(F)cc1)n1cncc1CN1CCN(Cc2ccccc2)C(=O)C1` [Compound 61, (R)-1-benzyl-4-((1-(1-(4-fluorophenyl)ethyl)-1H-imidazol-5-yl)methyl)piperazin-2-one], the IC50 on CYP3A4 is 23 nM; at CYP1A2 it was above 10000 nM; at CYP2C9 it was above 10000 nM; on CYP2C19, 1620 nM; at CYP2D6, 2520 nM.

Consider `C[C@H](c1ccc(F)cc1)n1cncc1CN1CCN(Cc2ccccc2Cn2cncn2)C(=O)C1` [Compound 62, (R)-1-(2-((1H-1,2,4-triazol-1-yl)methyl)benzyl)-4-((1-(1-(4-fluorophenyl)ethyl)-1H-imidazol-5-yl)methyl) piperazin-2-one], for which the IC50 at CYP3A4 was 43 nM; on CYP1A2 it was 6940 nM; on CYP2C9, 6210 nM; at CYP2C19, 1140 nM; on CYP2D6, 5640 nM.

For the compound `C[C@H](c1ccc(F)cc1)n1cncc1CN1CCN(Cc2cn3ccccc3n2)C(=O)C1` [Compound 63, (R)-4-((1-(1-(4-fluorophenyl)ethyl)-1H-imidazol-5-yl)methyl)-1-(imidazo[1,2-a]pyridin-2-ylmethyl)piperazin-2-one], the half-maximal inhibitory concentration (IC50) at CYP3A4 is 46 nM; on CYP1A2, at least 10000 nM; at CYP2C9, above 10000 nM; at CYP2C19 it was above 10000 nM; at CYP2D6, above 10000 nM.

On to `COc1ccc(-c2nc(CN3CCN(Cc4cncn4[C@H](C)c4ccc(F)cc4)CC3=O)no2)cc1` [Compound 64, (R)-4-((1-(1-(4-fluorophenyl)ethyl)-1H-imidazol-5-yl)methyl)-1-((5-(4-methoxyphenyl)-1,2,4-oxadiazol-3-yl)methyl) piperazin-2-one], for which the IC50 at CYP3A4 came to 43 nM; on CYP1A2, 3590 nM; on CYP2C9 it was 2860 nM; at CYP2C19 it was 4520 nM; on CYP2D6 it was 3110 nM.

As to `COc1ccc(CNc2ncc(CN3CCN(Cc4cncn4[C@H](C)c4ccc(F)cc4)CC3=O)s2)c(OC)c1` [Compound 65, (R)-1-((2-((2,4-dimethoxybenzyl)amino)thiazol-5-yl)methyl)-4-((1-(1-(4-fluorophenyl)ethyl)-1H-imidazol-5-yl)methyl)piperazin-2-one], the half-inhibitory concentration (IC50) was 10 nM on CYP3A4; above 10000 nM at CYP1A2; 8780 nM on CYP2C9; 1340 nM at CYP2C19; 3360 nM on CYP2D6.

In the case of `C[C@H](c1ccc(F)cc1)n1cncc1CN1CCN(Cc2cnc(N(C)C)s2)C(=O)C1` [Compound 66, (R)-1-((2-(dimethylamino)thiazol-5-yl)methyl)-4-((1-(1-(4-fluorophenyl)ethyl)-1H-imidazol-5-yl)methyl) piperazin-2-one], the IC50 is 43 nM at CYP3A4; above 10000 nM on CYP1A2; above 10000 nM on CYP2C9; above 10000 nM on CYP2C19; above 10000 nM at CYP2D6.

`CNc1ncc(CN2CCN(Cc3cncn3[C@H](C)c3ccc(F)cc3)CC2=O)s1` [Compound 67, (R)-4-((1-(1-(4-fluorophenyl)ethyl)-1H-imidazol-5-yl)methyl)-1-((2-(methylamino)thiazol-5-yl)methyl) piperazin-2-one]: the IC50 at CYP3A4 is 75 nM; on CYP1A2 it was above 10000 nM; at CYP2C9 it was above 10000 nM; at CYP2C19 it was above 10000 nM; on CYP2D6 it was above 10000 nM.

Consider `C[C@H](c1ccc(F)cc1)n1cncc1CN1CCN(Cc2cnc(N3CCOCC3)s2)C(=O)C1` [Compound 68, (R)-4-((1-(1-(4-fluorophenyl)ethyl)-1H-imidazol-5-yl)methyl)-1-((2-morpholinothiazol-5-yl)methyl)piperazin-2-one], for which the IC50 on CYP3A4 is 80 nM; at CYP1A2, above 10000 nM; at CYP2C9 it was above 10000 nM; at CYP2C19, above 10000 nM; at CYP2D6 it was above 10000 nM.
